Measurements as given in patent publication US4745123A, “Substituted tetrahydro-3-pyridine-carboxylic acid, ester, and amide cholinergic agents” (priority 1986, dated 1988).

Legend:
[1] = biological target: muscarinic binding site; experiment: inhibition of specific binding at the muscarinic binding site
Procedure: The compounds were assayed at one or more concentrations in each binding assay.

[2] = test system: rats; experiment: reversal of retrograde amnesia in rats produced by electroconvulsive shock treatment; type: in vivo, rat (Charles River CD strain); design: reversal of retrograde amnesia (Table C): scale not given here
Procedure: Several representative compounds of the present invention were also assayed in an in vivo test designed to assess the ability of the compounds to reverse retrograde amnesia in rats produced by electroconvulsive shock treatment. Activity of a compound in this test is indicative of potential cognition activating activity in human patients suffering from impaired cognitive function.
In the test, groups of fifty weanling rats (Charles River CD strain) are randomly divided into five sub-groups of ten rats each. The rats are trained by placing them in a highly illuminated 6 inch by 8 inch box which opens into a darkened 8 inch by 12 inch chamber having electrified grids. Initially, rats move freely from the illuminated compartment to the darkened chamber through a 4 inch by 4 inch doorway.
When a rat has all four feet within the darkened chamber, the floor of the darkened chamber is electrified and the rat is electrically shocked until it exits to the original illuminated area. If a rat reenters the darkened chamber before one minute has elapsed, it again receives a mild foot shock until it exits to the illuminated area. When the rat remains in the illuminated area for a period of one minute, it is removed and placed in a group holding cage.
Two hours after the above training, the rats are given a single 20 ma electroconvulsive shock of 1 second duration and immediately returned to the holding cage.
Two hours after the delivery of the shock, the rats are administered the test compound orally, or intraperitoneally or intramuscularly for special tests.
One hour after treatment with the test compound, the rats are tested for retention of the avoidance response. This is accomplished by placing a drug-treated rat in the illuminated area of the test chamber. […] Any rat entering the darkened chamber within sixty seconds is designated as having amnesia for this response.
The five sub-groups of ten rats each were treated as follows:
A 50% difference between the baseline and ceiling control groups was required to evaluate a particular test compound. If a difference of less than 50% was observed, the results of that particular experiment were discarded.
Under the test conditions, a difference of this magnitude is statistically significant using the multinomial expansion of the statistical chi-square test.

[3] = test system: patients clinically diagnosed as having presenile primary degenerative dementia; conditions: double blind study, Christie et al. (1981); cited from earlier work

| Compound | IC50 [1] [nM] | active (A) / inactive (N), reversal of retrograde amnesia ([2]; 0.01 mg/kg) | reversal of retrograde amnesia (Table C) ([2]; 0.01 mg/kg) | active (A) / inactive (N), reversal of retrograde amnesia ([2]; 0.1 mg/kg) | reversal of retrograde amnesia (Table C) ([2]; 0.1 mg/kg) | active (A) / inactive (N), reversal of retrograde amnesia ([2]; 1.0 mg/kg) | reversal of retrograde amnesia (Table C) ([2]; 1.0 mg/kg) | test of picture recognition [3] |
| --- | --- | --- | --- | --- | --- | --- | --- | --- |
| COC(=O)C1CN(C)CC=C1c1ccccc1 (racemic) [Example 63, (±)-1,2,3,6-tetrahydro-1-methyl-4-phenyl-3-pyridinecarboxylic acid, methyl ester] | 3640 | A ("active" (A) if the difference between the numbers of animals in the drug and control groups reentering the darkened chamber was equal or greater than three out of ten) | 50 | N (if less than three, the test compound was considered "inactive" (N)) | 17 | A ("active" (A) if the difference between the numbers of animals in the drug and control groups reentering the darkened chamber was equal or greater than three out of ten) | 50 |  |
| COC(=O)C1=CCCN(C)C1 [Arecoline, methyl ester of 1,2,5,6-tetrahydro-1-methyl-3-pyridinecarboxylic acid, reference compound] | 1100 |  |  |  |  |  |  | Significant improvement |
| CCN1CCC(c2ccccc2)=C(C(=O)OCc2ccccc2)C1 [Example 1] | 310 | N (if less than three, the test compound was considered "inactive" (N)) | 40 | N (if less than three, the test compound was considered "inactive" (N)) | 20 | N (if less than three, the test compound was considered "inactive" (N)) | 40 |  |
| COC(=O)C1=C(c2ccccc2)CCN(C)C1 [Example 21, 1,2,5,6-tetrahydro-1-methyl-4-phenyl-3-pyridinecarboxylicacid, methyl ester] | 3160 | A ("active" (A) if the difference between the numbers of animals in the drug and control groups reentering the darkened chamber was equal or greater than three out of ten) | 57 | N (if less than three, the test compound was considered "inactive" (N)) | 57 | N (if less than three, the test compound was considered "inactive" (N)) | 0 |  |
| CCCN1CCC(c2ccccc2)=C(C(=O)OC)C1 [Example 22, 1,2,5,6-Tetrahydro-4-phenyl-1-propyl-3-pyridinecarboxylic acid, methyl ester] | 6500 | A ("active" (A) if the difference between the numbers of animals in the drug and control groups reentering the darkened chamber was equal or greater than three out of ten) | 57 | A ("active" (A) if the difference between the numbers of animals in the drug and control groups reentering the darkened chamber was equal or greater than three out of ten) | 81 | A ("active" (A) if the difference between the numbers of animals in the drug and control groups reentering the darkened chamber was equal or greater than three out of ten) | 57 |  |
| CCN1CC=C(c2ccccc2)C(C(=O)OC(C)C)C1 (centres unmarked) [Example 87] | 800 |  |  |  |  |  |  |  |
| CCN1CC=C(c2ccccc2)C(C(=O)OC2CCCC2)C1 (centres unmarked) [Example 88] | 360 |  |  |  |  |  |  |  |
